{"source": "ChEMBL document CHEMBL5532675", "about": "“Discovery of 4-Ethoxy-6-chloro-5-azaindazoles as Novel PDE4 Inhibitors for the Treatment of Alcohol Use Disorder and Alcoholic Liver Diseases” (J Med Chem, 2024)", "key": {"[1]": {"target": "3',5'-cyclic-AMP phosphodiesterase 4D (Homo sapiens, UniProt Q08499)", "sequence (Q08499 whole entry)": "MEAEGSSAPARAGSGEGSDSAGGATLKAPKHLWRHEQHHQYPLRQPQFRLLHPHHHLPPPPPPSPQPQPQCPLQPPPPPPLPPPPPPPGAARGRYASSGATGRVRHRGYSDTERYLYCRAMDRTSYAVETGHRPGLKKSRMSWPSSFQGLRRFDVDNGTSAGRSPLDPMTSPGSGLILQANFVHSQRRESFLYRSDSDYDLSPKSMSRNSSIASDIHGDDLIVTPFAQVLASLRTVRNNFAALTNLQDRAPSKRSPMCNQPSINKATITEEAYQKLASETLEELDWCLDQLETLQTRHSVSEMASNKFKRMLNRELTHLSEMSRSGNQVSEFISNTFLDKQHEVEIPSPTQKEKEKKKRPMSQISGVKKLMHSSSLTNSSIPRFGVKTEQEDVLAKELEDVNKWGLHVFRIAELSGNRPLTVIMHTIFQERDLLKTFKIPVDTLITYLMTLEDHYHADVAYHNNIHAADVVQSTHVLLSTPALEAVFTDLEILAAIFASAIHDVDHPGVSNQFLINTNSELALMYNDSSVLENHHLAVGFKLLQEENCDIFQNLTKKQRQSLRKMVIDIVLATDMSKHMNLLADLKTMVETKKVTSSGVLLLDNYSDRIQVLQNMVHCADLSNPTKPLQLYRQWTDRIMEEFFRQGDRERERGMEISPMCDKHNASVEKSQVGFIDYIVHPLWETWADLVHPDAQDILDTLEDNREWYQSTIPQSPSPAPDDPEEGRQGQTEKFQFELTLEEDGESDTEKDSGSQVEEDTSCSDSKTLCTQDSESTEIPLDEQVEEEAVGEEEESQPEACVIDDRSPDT", "experiment": "Inhibition of PDE4D7 (unknown origin) using FAM-cyclic-3',5'-AMP as substrate incubated for 1 hrs by fluorescence polarization based IMAP assay"}, "[2]": {"experiment": "Drug concentration in Sprague-Dawley rat liver at 10 mg/kg, po administered as single dose for 2 hrs by LC-MS analysis", "format": "ADME, organism-based", "conditions": "read-out: Ct"}}, "data": [{"smiles": "CCOc1nc(Cl)cc2c1cnn2CCCC(=O)O", "values": [{"measurement": "IC50", "setting": "[1]", "value": 37.4, "unit": "nM"}, {"measurement": "concentration at 2 h", "setting": "[2]", "value": 8120, "unit": "ng/g"}]}]}
